Patent US5118669A, “Peptides and intermediates therefor useful as antiallergic agents, vasodilators and immunoregulators” (Hitachi Chemical Co., Ltd., priority 1989, dated 1992)

Columns and labels:
[1] = tested on: lymphocytes (mononuclear cells from blood of a healthy adult); assay: Blast formation of lymphocytes stimulated with various lectins (3H-thymidine uptake); format: cell-based, human (healthy adult); details: for uptake of 3H-thymine by the lymphocytes stimulated with a lectin: particularly Con-A; for uptake of 3H-thymine by the lymphocytes stimulated with a lectin / influence upon uptake of 3H-thymine by lymphocytes in the absence of a mitogen: summary of Tables 3-6; for influence upon uptake of 3H-thymine by lymphocytes in the absence of a mitogen: no mitogen
Description: Mononuclear cells were collected by the density centrifugal method from blood of a healthy adult drawn in the presence of heparin and suspended in an RPMI-1640 culture medium (manufactured by Gibco) containing 10% by volume of bovine fetus serum (called FBS, manufactured by Dainihon Seiyaku). The suspension, adjusted to a concentration of 1×10^6 cells/ml, was divided into a 96-well Falcon microplate (manufactured by Becton Dickinson) in a volume of 100 μl/well. Then, a lectin, 1 μg/ml of PHA (phytohemagglutinin), 10 μg/ml of Con-A (concanavalin A) or 15 μg/ml of PWM (pokeweed mitogen) and one of the captioned peptides at a predetermined concentration were added followed by addition of a 10% FBS containing RPMI-1640 medium to a final liquid volume of 200 μl. Cultivation was made in a 5% by volume CO2 incubator at 37° C. for 72 hours, and 24 hours before completion of the cultivation 5 μCi of ^3 H-thymidine was added. The cells were recovered by a cell harvester (manufactured by Bio-Lab), and uptake of the ^3 H-thymidine was measured by a scintillation counter. Results of the measurement are shown in Table 3-Table 6 wherein figures indicate mean count (cpm)±standard error.

TNF = assay: Productivity of humoral factors by lymphocytes: TNF; format: cell-based, human (healthy adult); details: for TNF: cultivation for a week, control 2,020; for production of TNF: summary of Table 7
Description: (§1) Mononuclear cells separated by the density centrifugal method from blood of a healthy adult drawn in the presence of heparin were suspended in an RPMI-1640 culture medium containing 10% by volume of FBS. The suspension was divided into culture tubes (Falcon 2054) each at a concentration of 1×10^6 cells/ml, to which the captioned peptides were respectively added. Cultivation was made in an incubator for a week. After completion of the cultivation, the culture was centrifuged (1,500 rpm, 10 min.), and the supernatant collected and assayed for humoral factors. Interleukin 1 (IL-1) and tumor-nectrotizing factors were measured, respectively by a IL-1 radioimmunoassay kit (manufactured by Amersham International) and a TNF radioimmunoassay kit (manufactured by Medgenix). Measurement of interleukin 6 (IL-6) was made by the enzyme immunoassay method (ELISA) using IL-6 antibody (manufactured by Genzyme). Results of the measurements are shown in Table 7 wherein figures represent mean value±standard error.

IL-6 = assay: Productivity of humoral factors by lymphocytes: IL-6; format: cell-based, human (healthy adult); details: for IL-6: cultivation for a week, control 270; for production of IL-6: summary of Table 7
Description: as §1

[2] = tested on: intraperitoneal mast cells of the rats; assay: Inhibitory activity on histamine release from passively sensitized rat mast cells; format: cell-based; details: for inhibitory activity on histamine release: at a concentration of 10^-5 M or higher, FIG. 5-7; for potency of histamine release inhibition compared with H-Asp-Ser-Asp-Pro-Arg-OH: versus comparative drug H-Asp-Ser-Asp-Pro-Arg-OH; for potency of histamine release inhibition compared with cromoglycate: versus cromoglycate
Description: Male Wistar rats weighing 300-350 g were passively sensitized, and intraperitoneal mast cells of the rats were employed for the test. Rat antiserum used in the passive sensitization was prepared in accordance with the method of Mota [Immunology, 7, p. 681 (1964)] and the method of Hamaoka [J. Immunology, 113, p. 958 (1974)]. Male Wistar rats (weighing 200-250 g) each were injected ovalbumin (10 mg/kg) in a volume of 5 ml/kg intramuscularly on both thighs and simultaneously 2×10^10 cells of killed Bordetella pertussis were intraperitoneally administered to immunize the animal. Blood was drawn from the animal under ether anesthesia via the abdominal aorta on day 12 of the initial sensitization,from which antiserum was separated. The antiserum was lyophilized and stored at -20° C. Titer of the antiserum was assayed by the 48-hour rat PCA reaction. […] The anti-albumin IgE serum of the rat was two fold diluted, and 1 ml of the diluted serum was intraperitoneally administered to sensitize the animal. The rat was killed by blooding 48 hours after the sensitization, and 15 ml of a phosphate buffered saline (NaCl 8 g, KCl 0.2 g, Na2 HPO4.12H2 O 2.88 g, KH2 PO4 0.2 g, EDTA.2Na 0.2 g and bovine serum albumin 1 g, dissolved in purified water to make 1 liter, pH 7.4 (called PBS(-) hereinbelow) was intraperitoneally injected. The rat was then given light abdominal massage for about 2 min. and subjected to laparotomy to collect cells in the abdominal cavity. The cell suspension was centrifuged (1,000 rpm, 10 min.) and then resuspended in PBS(-). The PBS(-) suspension was overlayered on gum arabic density (specific gravity 1.075) followed by centrifugal separation (2,500 rpm, 10 min.). Deposited cells were washed with PBS(-) and suspended in fresh PBS(+)[a solution in which the EDTA 2Na in PBS(-) is replaced by 0.1 g of CaCl2, called PBS(+)] and adjusted to 1×10^5 cells/ml. The cell suspension was divided into silicone-treated test tubes in a volume of 0.8 ml/tube, which were then preincubated at 37° C. for 10 min. In the cell suspension-containing test tube was placed 0.1 ml of a test solution from various solutions diluted with PBS(+) followed by incubation at 37° C. for 15 min. To the test tube was then added 0.1 ml of a mixed solution of ovalbumin antigen (final concentration 1 mg/ml) and phosphatidyl-L-serine (final concentration 100 μm/ml) followed by incubation for additional 15 min. to release histamine. For cromoglycate, one of the comparative drugs, the drug was added 30 sec. prior to the addition of the antigen, and incubation was then made for additional 15 min. The reaction was terminated by addition of 1 ml of ice-cooled PBS(+), and the reaction mixture was centrifuged at 2,500 rpm for 10 min. To 2 ml of the supernatant was added 1 ml of a 4% solution of perchloric acid, and the mixture was assayed for free histamine. For the assay of total histamine, a sample was prepared by placing 0.8 ml of a suspension of untreated mast cells in boiling water for 10 min. followed by addition of 4% perchloric acid.
Amount of histamine in the sample was assayed by fluorimetry, and percent histamine release (%) was calculated by the equation [formula]

IL-1 = assay: Productivity of humoral factors by lymphocytes: IL-1; format: cell-based, human (healthy adult); details: for IL-1: cultivation for a week, control 7.1; for production of IL-1: summary of Table 7
Description: as §1

[3] = tested on: thoracic aorta of male rabbits contracted with norepinephrine; assay: Vasodilating action on aortic spiral strip contracted with norepinephrine; set-up: species or system rabbit; details: norepinephrine contraction
Description: (§2) The thoracic aorta of male rabbits weighing 2.5-3 kg was excised and aortic specimens of spiral strip 25-30 mm in length were prepared. […] The specimen was cumulatively administered with H-Asp-Gly-Lys-OH, H Ser-Asp-Gly-Lys-OH, or H-Asp-Ser-Asp-Gly-Lys-OH or H-Ala-Asp-Ser-Asp-Gly-Lys-OH, and relaxation reaction of the blood vessel was observed. As comparative drug were employed nitroprusside (sodium salt) and verapamil.

[4] = tested on: thoracic aorta of male rabbits contracted with potassium chloride; assay: Vasodilating action on aortic spiral strip contracted with potassium chloride; set-up: species or system rabbit; details: potassium chloride contraction
Description: as §2

[5] = Con-A (10 μg/ml), peptide 10^-6 M, control 37,800
[6] = Con-A (10 μg/ml), peptide 10^-8 M, control 37,800
[7] = PHA (1 μg/ml), peptide 10^-6 M, control 69,600
[8] = PHA (1 μg/ml), peptide 10^-8 M, control 69,600
[9] = PWM (15 μg/ml), peptide 10^-6 M, control 13,600
[10] = PWM (15 μg/ml), peptide 10^-8 M, control 13,600
[11] = mitogen None, peptide 10^-6 M, control 1,090
[12] = mitogen None, peptide 10^-8 M, control 1,090

| Substance | Uptake of 3H-thymidine by lymphocytes [1, 5] | Uptake of 3H-thymidine by lymphocytes [1, 6] | Uptake of 3H-thymidine by lymphocytes [1, 7] | Uptake of 3H-thymidine by lymphocytes [1, 8] | Uptake of 3H-thymidine by lymphocytes [1, 9] | Uptake of 3H-thymidine by lymphocytes [1, 10] | uptake of 3H-thymine by the lymphocytes stimulated with a lectin [1] | Uptake of 3H-thymidine by lymphocytes [1, 11] [cpm] | Uptake of 3H-thymidine by lymphocytes [1, 12] | influence upon uptake of 3H-thymine by lymphocytes in the absence of a mitogen [1] | TNF (TNF; additive 10^-6 M) | TNF (TNF; additive 10^-8 M) | production of TNF (TNF) | IL-6 (IL-6; additive 10^-6 M) [U/ml] | IL-6 (IL-6; additive 10^-8 M) [U/ml] | production of IL-6 (IL-6) | inhibitory activity on histamine release [2] | IL-1 (IL-1; additive 10^-6 M) [fM/ml] | IL-1 (IL-1; additive 10^-8 M) [fM/ml] | production of IL-1 (IL-1) | also measured |
| --- | --- | --- | --- | --- | --- | --- | --- | --- | --- | --- | --- | --- | --- | --- | --- | --- | --- | --- | --- | --- | --- |
| H-ADSDGK-OH [ADSDGK, H-Ala-Asp-Ser-Asp-Gly-Lys-OH] | 21,500 cpm | 24,600 cpm | 63,000 cpm | 64,100 cpm | 13,600 cpm | 14,500 cpm | strongly inhibit | 900 | 797 cpm | little influence | 3,620 pg/ml | 4,120 pg/ml | promote production | 270 | 270 | promote production | clear inhibitory activity | 11.2 | 11.3 | promote production | potency of histamine release inhibition compared with H-Asp-Ser-Asp-Pro-Arg-OH [2]: higher; potency of histamine release inhibition compared with cromoglycate [2]: nearly equal to or higher |
| H-Asp-Gly-Lys-OH [DGK] | 16,700 cpm | 20,000 cpm | 62,500 cpm | 62,700 cpm | 9,590 cpm | 11,500 cpm | strongly inhibit | 925 | 1,120 cpm | little influence | 4,730 pg/ml | 4,110 pg/ml | promote production | 440 | 400 | promote production | clear inhibitory activity | 9.5 | 7.1 | promote production | Percent relaxation ([3]; compound 10^-4 M): 40.3%; Percent relaxation ([3]; compound 10^-5 M): 9.3%; Percent relaxation ([3]; compound 10^-6 M): 6.6%; Percent relaxation ([3]; compound 10^-7 M): 0%; Percent relaxation ([3]; compound 10^-8 M): 0%; potency of histamine release inhibition compared with H-Asp-Ser-Asp-Pro-Arg-OH [2]: higher; potency of histamine release inhibition compared with cromoglycate [2]: nearly equal to or higher; Percent relaxation ([4]; compound 10^-4 M): 11.2%; Percent relaxation ([4]; compound 10^-5 M): 5.6%; Percent relaxation ([4]; compound 10^-6 M): 0%; Percent relaxation ([4]; compound 10^-7 M): 0%; Percent relaxation ([4]; compound 10^-8 M): 0% |
| H-DSDGK-OH [DSDGK, H-Asp-Ser-Asp-Gly-Lys-OH] | 19,300 cpm | 17,900 cpm | 56,900 cpm | 62,000 cpm | 13,000 cpm | 9,550 cpm | strongly inhibit | 877 | 887 cpm | little influence | 4,270 pg/ml | 4,100 pg/ml | promote production | 400 | 280 | promote production |  | 8.3 | 7.3 | promote production |  |
| H-Ser-Asp-Gly-Lys-OH (H-SDGK-OH) [tetrapeptide] | 24,000 cpm | 24,200 cpm | 59,000 cpm | 62,100 cpm | 9,000 cpm | 10,000 cpm | strongly inhibit | 911 | 1,436 cpm | little influence | 4,260 pg/ml | 3,620 pg/ml | promote production | 280 | 350 | promote production | clear inhibitory activity | 11.2 | 10.7 | promote production | Percent relaxation ([3]; compound 10^-4 M): 52.6%; Percent relaxation ([3]; compound 10^-5 M): 25.0%; Percent relaxation ([3]; compound 10^-6 M): 17.7%; Percent relaxation ([3]; compound 10^-7 M): 9.1%; Percent relaxation ([3]; compound 10^-8 M): 1.7%; potency of histamine release inhibition compared with H-Asp-Ser-Asp-Pro-Arg-OH [2]: higher; potency of histamine release inhibition compared with cromoglycate [2]: nearly equal to or higher; Percent relaxation ([4]; compound 10^-4 M): 18.6%; Percent relaxation ([4]; compound 10^-5 M): 7.2%; Percent relaxation ([4]; compound 10^-6 M): 0%; Percent relaxation ([4]; compound 10^-7 M): 0%; Percent relaxation ([4]; compound 10^-8 M): 0% |
